Values quoted from earlier work in US20090048110A1, “Orchid Culturing Method” (priority 2005, published 2009).

Tested on: Dendrobium
Details: application to the mature pseudobulbs, but not the developing ones

## c1ccc(CNc2ncnc3nc[nH]c23)cc1 [6-BAP, 6-benzylaminopurine]
  triggering of spiking: shown to trigger spiking
